System: Splenocyte
Experiment: Inhibition of IL5 production in mouse splenocyte model of allergic inflammation at 10 ug/ml
Assay type: functional

`CC[C@@H](O)[C@@H](C)/C=C(C)/C=C/c1oc(=O)c(C)c(O)c1C` [SALINIPYRONE A] showed an inhibition at 10 µg/mL of 50%.

— ChEMBL document CHEMBL1149867, “Salinipyrones and pacificanones, mixed-precursor polyketides from the marine actinomycete Salinispora pacifica” (2008)
